Measured values as given in PMC11314063, “Inhibition of DNA Topoisomerase Ι by Flavonoids and Polyacetylenes Isolated from Bidens pilosa L” (Molecules, 2024).
Like-named read-outs stand apart in the source and are kept apart here.

Experiments:
HepG2 = assay: SRB cytotoxicity assay, HepG2; format: cell-based; conditions: Homo sapiens, read-out: IC50 Cytotoxicity HepG2
Description: (§1) The cell lines MDA-MB-231 (No. TCHu227), A549 (No. TCHu150), and HepG2 (No. TCHu72) were obtained from the Cell Bank/Stem Cell Bank, Chinese Academy of Sciences (Shanghai, China). The cell lines DLD-1 (No. CC0507) and HCT116 (No. CC0506) were obtained from the Cell Bank of Cellcook Biotech Co., Ltd. (Guangzhou, China). Cell line HL-7702 (No. BNCC338358) was obtained from Bena Culture Collection (Zhengzhou, China).
(§2) The human cancer cell lines MDA-MB-231 (breast adenocarcinoma), DLD-1 (colorectal adenocarcinoma), A549 (lung epithelial carcinoma), HCT116 (colorectal adenocarcinoma), HepG2 (hepatocellular carcinoma), and human hepatocyte HL-7702 were cultured in Dulbecco’s modified eagle medium (DMEM, Biological Industries, Beit Haemek, Israel) containing 10% (v/v) fetal bovine serum (FBS, Biological Industries, Beit Haemek, Israel) at 37 °C in a humidified incubator (ThermoFisher, Carlsbad, CA, USA) with a 5% CO2 atmosphere.

MDA-MB-231 = assay: SRB cytotoxicity assay, MDA-MB-231; format: cell-based; conditions: Homo sapiens, read-out: IC50 Cytotoxicity MDA-MB-231
Description: as §1, §2

DLD-1 = assay: SRB cytotoxicity assay, DLD-1; format: cell-based; conditions: Homo sapiens, read-out: IC50 Cytotoxicity DLD-1
Description: as §1, §2

A549 = assay: SRB cytotoxicity assay, A549; format: cell-based; conditions: Homo sapiens, read-out: IC50 Cytotoxicity A549
Description: as §1, §2

[1] = SRB cytotoxicity assay, hepatocyte HL-7702; format: cell-based, human
Description: as §1, §2

HCT116 = assay: SRB cytotoxicity assay, HCT116; format: cell-based; conditions: Homo sapiens, read-out: IC50 Cytotoxicity HCT116
Description: as §1, §2

DNA Topo I = molecular target: T1, DNA Topo I (Homo sapiens, UniProt P11387); assay: Topo I inhibition assay (DNA relaxation assay); format: biochemical; conditions: for IC50: DNA relaxation assay, pBR322, mean ± SD; for percentage inhibition on Topo I activity / inhibition at 400 µM: at 400 μM; for inhibition at 400 µM: read-out: percentage inhibition on Topo I activity
T1 construct: purchased ThermoFisher, Waltham, MA, USA
T1 sequence (P11387 1-765): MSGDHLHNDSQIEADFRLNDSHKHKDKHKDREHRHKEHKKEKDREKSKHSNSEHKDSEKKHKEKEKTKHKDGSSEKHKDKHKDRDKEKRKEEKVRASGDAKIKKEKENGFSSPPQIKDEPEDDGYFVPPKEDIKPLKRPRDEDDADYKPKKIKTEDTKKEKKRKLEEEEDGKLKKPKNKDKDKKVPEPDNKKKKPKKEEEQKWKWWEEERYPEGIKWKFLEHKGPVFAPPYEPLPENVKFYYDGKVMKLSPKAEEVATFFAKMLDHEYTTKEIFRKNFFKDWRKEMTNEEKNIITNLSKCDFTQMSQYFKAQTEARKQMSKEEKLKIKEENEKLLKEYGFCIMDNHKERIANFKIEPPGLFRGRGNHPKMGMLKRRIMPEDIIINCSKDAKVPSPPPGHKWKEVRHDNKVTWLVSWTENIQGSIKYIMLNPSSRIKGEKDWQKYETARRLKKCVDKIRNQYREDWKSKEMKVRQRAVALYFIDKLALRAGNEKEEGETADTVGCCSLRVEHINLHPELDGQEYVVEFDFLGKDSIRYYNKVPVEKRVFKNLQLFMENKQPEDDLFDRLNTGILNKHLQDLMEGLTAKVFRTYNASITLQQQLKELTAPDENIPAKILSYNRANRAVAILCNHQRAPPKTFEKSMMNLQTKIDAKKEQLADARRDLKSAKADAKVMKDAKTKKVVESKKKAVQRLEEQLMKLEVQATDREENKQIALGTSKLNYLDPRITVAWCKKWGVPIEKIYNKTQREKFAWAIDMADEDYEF
Procedure: The DNA relaxation assay was adopted to investigate the compounds’ inhibitory activities on Topo I. Different concentrations of the compounds, dissolved and diluted in DMSO, were added into the relaxation buffer (50 mM Tris, pH 7.5, 50 mM KCl, 10 mM MgCl2, 0.1 mM EDTA, 0.5 Mm dithiothreitol, and 0.05 mg/mL bovine serum albumin) containing 0.2 U Topo I (ThermoFisher, Waltham, MA, USA) and incubated at room temperature for 10 min. After that, 500 ng supercoiled pBR322 plasmid DNA (ThermoFisher, Waltham, MA, USA) was added and then incubated at 37 °C for another 30 min. Finally, the reactions were stopped with a stopping solution (5% sodium dodecyl sulfate, 0.0025% bromophenol blue, and 25% glycerol), and the mixtures were applied onto 0.8% agarose gel and subjected to electrophoresis for 1.5 h in Tris-Acetate-EDTA buffer. After being stained with GelRed (Biotium, Fremont, CA, USA), the gel was imagined with the imaging system (Biotop, Shanghai, China). […] The band density of the supercoiled DNA was quantified by the ImageJ software (version 1.53a, National Institutes of Health, Bethesda, MD, USA), and the inhibition activity is expressed as the percentage inhibition and calculated by formula: Inhibition % = [(A − B)/(C − B)] × 100%, where A is the band density of the tested samples, B is the band density of the negative control, and C is the band density of the blank control.

[2] = HepG2, SRB assay, 48 h, mean ± SD
[3] = MDA-MB-231, SRB assay, 48 h, mean ± SD
[4] = DLD-1, SRB assay, 48 h, mean ± SD
[5] = A549, SRB assay, 48 h, mean ± SD
[6] = HL-7702 hepatocyte cell line, SRB assay, 48 h, human hepatocyte, mean ± SD, read-out: IC50 Cytotoxicity HL-7702
[7] = HCT-116, SRB assay, 48 h, mean ± SD

Compound | IC50 (HepG2; [2]) | IC50 (MDA-MB-231; [3]) | IC50 (DLD-1; [4]) | IC50 (A549; [5]) | IC50 at 48 h [1, 6] | IC50 (HCT116; [7]) | IC50 (DNA Topo I) | percentage inhibition on Topo I activity (DNA Topo I) | inhibition at 400 µM (DNA Topo I) | IC50 (HepG2; HepG2, 48 h) | IC50 (MDA-MB-231; MDA-MB-231, 48 h) | IC50 (DLD-1; DLD-1, 48 h) | IC50 (A549; A549, 48 h) | IC50 at 48 h ([1]; human) | IC50 (HCT116; HCT-116, 48 h)
CC[C@@]1(O)C(=O)OCc2c1cc1n(c2=O)Cc2cc3ccccc3nc2-1 [CPT, Camptothecin, reference compound] | 1.71 ± 0.47 µM | 20.4 ± 3.7 µM | 17 ± 3.82 µM | 4.41 ± 1.11 µM | 2.11 µM | 12.1 ± 5.74 µM |  |  |  |  |  |  |  |  | 
COc1ccc(/C=C/C(=O)c2ccc(O[C@@H]3O[C@H](CO)[C@@H](O)[C@H](O)[C@H]3O)c(O[C@@H]3O[C@H](CO)[C@@H](O)[C@H](O)[C@H]3O)c2O)cc1O [Compound 1, 4-O-methylokanin 3′,4′-di-O-β-D-glucopyranoside] | > 200 µM | > 200 µM | > 200 µM | > 200 µM | > 200 µM | > 200 µM | 394 ± 39 µM |  |  |  |  |  |  |  | 
COc1ccc(/C=C/C(=O)c2ccc(O)c(O[C@@H]3O[C@H](CO)[C@@H](O)[C@H](O)[C@H]3O)c2O)cc1O [Compound 2] | > 200 µM | > 200 µM | > 200 µM | > 200 µM | > 200 µM | > 200 µM | 329 ± 58.8 µM |  |  |  |  |  |  |  | 
COc1cc(O)c2c(=O)c(OC)c(-c3ccc(O)c(O)c3)oc2c1 [Compound 4] | 3.05 ± 1.31 µM | > 200 µM | 7.14 ± 0.35 µM | 8.16 ± 4.04 µM | 19.6 ± 0.62 µM | 4.52 ± 0.04 µM | > 400 µM | no inhibition |  |  |  |  |  |  | 
COc1cc(-c2oc3cc(O)c(OC)c(O)c3c(=O)c2O)ccc1O [Compound 8] | > 200 µM | > 200 µM | 187 ± 48.6 µM | 178 ± 4.38 µM | > 200 µM | > 200 µM | 190 ± 22.1 µM |  |  |  |  |  |  |  | 
COc1ccc(-c2oc3c(O)c(OC)c(O[C@@H]4O[C@H](CO)[C@@H](O)[C@H](O)[C@H]4O)cc3c(=O)c2OC)cc1O [Compound 9] | > 200 µM | > 200 µM | 50.5 ± 0.31 µM | 135 ± 32.3 µM | 126 ± 7.08 µM | 87.7 ± 15.3 µM | > 400 µM | no inhibition |  |  |  |  |  |  | 
COc1cc(OC)cc(-c2oc3cc(O[C@@H]4O[C@H](CO)[C@@H](O)[C@H](O)[C@H]4O)cc(O)c3c(=O)c2O)c1 [Compound 10] | > 200 µM | > 200 µM | 63 ± 4.08 µM | > 200 µM | 114.8 ± 0.55 µM | 59.3 ± 4.56 µM | > 400 µM | no inhibition |  |  |  |  |  |  | 
COc1c(O[C@@H]2O[C@H](CO)[C@@H](O)[C@H](O)[C@H]2O)cc2oc(-c3ccc(O)c(O)c3)c(OC)c(=O)c2c1O [Compound 12] | > 200 µM | > 200 µM | > 200 µM | > 200 µM | > 200 µM | > 200 µM | > 400 µM |  | 26.4% |  |  |  |  |  | 
COc1ccc(-c2oc3cc(O[C@@H]4O[C@H](CO)[C@@H](O)[C@H](O)[C@H]4O)c(OC)c(O)c3c(=O)c2OC)cc1O [Compound 14] | > 200 µM | > 200 µM | > 200 µM | > 200 µM | > 200 µM | > 200 µM | > 400 µM | no inhibition |  |  |  |  |  |  | 
O=c1cc(-c2ccc(O)c(O)c2)oc2cc(O)cc(O)c12 [Compound 15, luteolin] |  |  |  |  |  |  | 89.9 ± 28.1 µM |  |  | 175 ± 16.6 µM | 94.91 ± 0.5 µM | 69.2 ± 4.04 µM | 93.9 ± 2.92 µM | > 200 µM | 31.7 ± 1.54 µM
COc1ccc([C@@H]2CC(=O)c3ccc(O)c(O[C@@H]4O[C@H](CO)[C@@H](O)[C@H](O)[C@H]4O)c3O2)cc1O [Compound 16] | > 200 µM | > 200 µM | > 200 µM | > 200 µM | > 200 µM | > 200 µM | > 400 µM |  | 10.9% |  |  |  |  |  | 
COc1ccc([C@@H]2CC(=O)c3c(O)cc(O[C@@H]4O[C@H](CO)[C@@H](O)[C@H](O)[C@H]4O)cc3O2)cc1O [Compound 17] | > 200 µM | > 200 µM | > 200 µM | > 200 µM | > 200 µM | > 200 µM | > 400 µM | no inhibition |  |  |  |  |  |  | 
O=C1/C(=C/c2ccc(O)c(O)c2)Oc2c1ccc(O[C@@H]1O[C@H](CO)[C@@H](O)[C@H](O)[C@H]1O)c2O [Compound 18] | > 200 µM | > 200 µM | > 200 µM | > 200 µM | > 200 µM | > 200 µM | > 400 µM |  | 46.7% |  |  |  |  |  | 
CC(=O)OC[C@H]1O[C@@H](Oc2ccc3c(c2O)O/C(=C\c2ccc(O)c(O)c2)C3=O)[C@H](O)[C@@H](O)[C@@H]1O [Compound 19] | > 200 µM | > 200 µM | > 200 µM | > 200 µM | > 200 µM | > 200 µM | 47.5 ± 15.3 µM |  |  |  |  |  |  |  | 
